Reference: US8440624B2, “Peptide whitening agents and cosmetic compositions comprising the same” (Chanel Parfums Beaute, priority 2007, dated 2013)
Where a SMILES comes first, the peptide text is derived from it. Where no end group is shown, it is not given here. The star is where a group is joined. Palmitoyl = CCCCCCCCCCCCCCCC(=O)*

Legend:
B16 melanoma cells [1] = experiment: Effect on melanogenesis (melanin, absorption at 405 nm) boosted by NDP-MSH; format: cell-based; conditions: for inhibition of the synthesis of melanine: with NDP-MSH, 96 hours
Method: (§1) B16 melanoma cells were cultured at 37° C. and 5% of CO2 in microplates with 96 wells in the presence of DMEM (Invitrogen, reference 11880028) containing 1 g/l of glucose without phenol red supplemented by 3 g/l of glucose (Sigma, reference G7021), 2 mM of L-glutamine, 50 UI/ml of penicillin, 50 μg/ml of […] (Invitrogen, reference 15070063) and 10% of fetal veal serum (Invitrogen, 10270098). After 24 h, the culture medium is replaced by a DMEM medium containing or not (control) a stable derivative of α-MSH, i.e. NDP-MSH (NLE-4-D-PHE-7-A Melanocytes Stimulating Hormone, Sigma, reference M-8764) and containing or not the peptide (compound 3 of example 1 or its N-palmitoyl derivative) according to the invention. Each peptide was tested with and without lipofectamine, (Invitrogen, reference 1538-100), an agent used to facilitate the peptide penetration. The melanocytes were then incubated for 72 hours at 37° C. and 5% of CO2.
The protocol used is the same as in example 3. The melanocytes were incubated for 96 hours at 37° C. and 5% of CO2. Kojic acid was used as a positive control.
At the end of the incubation period, the quantity of melanine was evaluated by measuring the absorption at 405 nm for each sample.

B16 melanoma cells [2] = experiment: Melanocyte intracellular penetration of peptide+FITC; format: cell-based; conditions: 72 hours
Method: as §1
At the end of the incubation period, the medium was eliminated and cells were rinsed with a solution of PBS (phosphate buffer saline). The penetration of each peptide was analyzed by microscopy (In Cell Analyser® 100, GE Healthcare) with the objective ×20 or by Flux Cytometry after unsticking of cells by enzymatic treatment with trypsine (Flux FACSarray, Becton Dickinson).
The following table 1 illustrates the measurement of the penetration of the peptide+FITC (fluoresceine isothiocyanate) in B16 melanocytes at different peptide concentrations (4, 20, 100 and 500 μg/ml).

[3] = system: binding of AP-3 to the dileucine-based sorting signal containing tyrosinase; experiment: BIAcore competition: binding of AP-3 to tyrosinase tail peptide; design: species or system human; conditions: 200 nM adaptor, 10-1000 fold molar excess of peptide; FIG. 4
Method: (§2) Human tyrosinase also contains tyrosine residues in its cytoplasmic tail sequence, however they are not relevant with respect to adaptor binding. Instead, the tail contains a dileucine-based sorting signal that is bound by adaptors such as AP-2 and AP-3.
(§3) Binding between adaptors and the tyrosinase tail peptide was recorded in real-time using a BIAcore 3000 biosensor (GEHealthcare) based on surface plasmon resonance. The tyrosinase tail peptide (sequence: -[…]) (SEQ ID NO: 6) was immobilized on the surface of a CM5 sensor surface using thiol coupling and resulting in the immobilization of ≦300 RU of peptide. In brief, the CM5 surface was activated with EDC/NHS for 2 min at a flow-rate of 10 μl/min, followed by modification with PDEA for another 2 min. Subsequently, peptide was injected at a flow-rate of 5 μl/min for 1 min at a concentration of 5 μg/ml in 10 mM sodium acetate pH 4.5. The flow-rate was then adjusted to 20 μl/min and remaining active groups were blocked by injection of 50 mM cysteine, 1M NaCl. […]
(§4) For competition experiments, 200 nM adaptors were incubated with a 10-1000 fold molar excess of one of the 5 compound peptides for 10 min prior to injection. For comparison of adaptor binding to the immobilized tyrosinase tail, the RU values at the end of the injection (association period) and after the dissociation period were evaluated. […]

[4] = system: binding of AP-2 to the dileucine-based sorting signal containing tyrosinase; experiment: BIAcore competition: binding of AP-2 to tyrosinase tail peptide; design: species or system human; conditions: 200 nM adaptor, 10-1000 fold molar excess of peptide; FIG. 3
Method: as §2, §3, §4

[5] = without lipofectamine, 20 μg/ml
[6] = without lipofectamine, 100 μg/ml
[7] = without lipofectamine, 500 μg/ml

Molecule	inhibition of the NDP-MSH induction of the synthesis of melanin (B16 melanoma cells [1]; tested between 36 and 80 μg/ml)	inhibition of the synthesis of melanine (B16 melanoma cells [1]; 6.9 μg/ml)	inhibition of the synthesis of melanine (B16 melanoma cells [1]; 15.6 μg/ml)	inhibition of the synthesis of melanine (B16 melanoma cells [1]; 36 μg/ml)	inhibition of the synthesis of melanine (B16 melanoma cells [1]; 80 μg/ml)	inhibition of the synthesis of melanine (B16 melanoma cells [1]; without lipofectamine, 0.5 μg/ml)	inhibition of the synthesis of melanine (B16 melanoma cells [1]; without lipofectamine, 1 μg/ml)	inhibition of the synthesis of melanine (B16 melanoma cells [1]; without lipofectamine, 2.5 μg/ml)	inhibition of the synthesis of melanine (B16 melanoma cells [1]; without lipofectamine, 5 μg/ml)	inhibition of the synthesis of melanine (B16 melanoma cells [1]; without lipofectamine, 10 μg/ml)	penetration of the peptide+FITC in B16 melanocytes (B16 melanoma cells [2]; with lipofectamine, 4 μg/ml)	penetration of the peptide+FITC in B16 melanocytes (B16 melanoma cells [2]; with lipofectamine, 20 μg/ml)	penetration of the peptide+FITC in B16 melanocytes (B16 melanoma cells [2]; with lipofectamine, 100 μg/ml)	penetration of the peptide+FITC in B16 melanocytes (B16 melanoma cells [2]; with lipofectamine, 500 μg/ml)	penetration of the peptide+FITC in B16 melanocytes (B16 melanoma cells [2]; without lipofectamine, 4 μg/ml)	penetration of the peptide+FITC in B16 melanocytes (B16 melanoma cells [2]; [5])	penetration of the peptide+FITC in B16 melanocytes (B16 melanoma cells [2]; [6])	penetration of the peptide+FITC in B16 melanocytes (B16 melanoma cells [2]; [7])	inhibition of the binding of AP-3 to tyrosinase [3]	inhibition of the binding of AP-2 to tyrosinase [4]
O=c1cc(CO)occ1O [Kojic acid, reference compound]	sharply inhibited	−13 % of inhibition	−7 % of inhibition	33 % of inhibition	75 % of inhibition	–	–	–	–	–	–	–	–	–	–	–	–	–	–	–
CCCCCCCCCCCCCCCC(=O)N[C@@H](C)C(=O)N[C@@H](CCC(=O)O)C(=O)N[C@@H](CC(=O)O)C(=O)N[C@@H](CCC(=O)O)C(=O)N1CCC[C@H]1C(=O)N[C@@H](CC(C)C)C(=O)N[C@@H](CC(C)C)C(=O)N[C@@H](CCSC)C(=O)N[C@@H](CCC(=O)O)C(=O)O [N-palmitoyl derivative of compound 3] (Palmitoyl-AEDEPLLME-OH; C-terminus assumed)	–	–	–	–	–	ns *	9 % of inhibition	10 % of inhibition	14 % of inhibition	20 % of inhibition	765 % control	1495 % control	1331 % control	7726 % control	276 % control	364 % control	1486 % control	982 % control	–	–
AEDEPLLME [Compound 3, AEDEPLLME]	–	–	–	–	–	–	–	–	–	–	166 % control	338 % control	1097 % control	4265 % control	ns *	263 % control	533 % control	1640 % control	–	–
AEDEPLLVD [Compound 4]	–	–	–	–	–	–	–	–	–	–	–	–	–	–	–	–	–	–	most active	most active
